Measured values reported in ChEMBL document CHEMBL1157539, “Thousands of chemical starting points for antimalarial lead identification” (Nature, 2010).

The compounds below were run on Plasmodium falciparum (assay: GSK_TCMDC: Inhibition of Plasmodium falciparum 3D7 in whole erythrocytes, using parasite LDH activity as an index of growth.). Settings: Plasmodium falciparum, 3D7.
Format: functional, organism-based

| Compound | XC50 |
| --- | --- |
| Fc1cc(Cl)ccc1Nc1ccnc2cc(-c3ccc(CN4CCNCC4)o3)ccc12 | 277 nM |
| FC(F)c1nc2ccccc2n1-c1nc(N2CCOCC2)nc(N2CCOCC2)n1 [ZSTK-474] | 761 nM |
| CN1CCC(Oc2cc(CN3CC[C@H](NC(=O)c4ccc(Cl)c(Cl)c4)C3)ccc2I)C1 (stereo partly specified) | 843 nM |
| COc1ccccc1CCNc1nc(C)cc(NCCC(=O)NCCOc2ccccc2)n1 | 1370 nM |
| CN1CCN(CCNc2c3ccccc3nc3ccc4ccccc4c23)CC1 | 534 nM |
| O=C(NCc1ccco1)c1ccc(CN2CCN(C(c3ccccc3)c3ccccc3)CC2)cc1 | 789 nM |
| CC(=O)Nc1nc(C(=O)Nc2cccc(-c3cccc(-c4nc5cccc(C)c5[nH]4)c3)c2)cs1 | 115 nM |
| COc1ccc(CNCc2cccc(-c3cccc(-c4nc5cc(C(F)(F)F)ccc5[nH]4)c3)c2)cc1 | 196 nM |
| CCCCCCCCn1ccc(=N)cc1 | 840 nM |
| CC(C)(C)C(=O)N1CCN(c2ccc([N+](=O)[O-])c(NC3CC3)c2)CC1 | 941 nM |
| O=C(Nc1ccc(C(F)(F)F)cc1)Nc1cccc([N+](=O)[O-])c1 | 865 nM |
| CCN(CCCN1CCCCC1)c1cc(C)nc(Nc2ccc3c(c2)CCC3)n1 | 394 nM |
| CC(C)N1CCC(NC(=O)N2CCCN(c3ncnc4cc(-c5ccc(Cl)cc5)sc34)CC2)CC1 | 1940 nM |
| N#Cc1ccc2c(c1)CCN(CCC1CCC(NC(=O)/C=C/c3cnc4ccccc4c3)CC1)CC2 (stereo unspecified) | 1210 nM |
| CCCCn1c(-c2ccco2)nc2c(c(=O)c3ccccc3n2C)c1=O | 1240 nM |
| CCCCCc1cc(O)c2c(c1)OC(C)(C)c1ccncc1-2 | 763 nM |
| C[C@H](Cc1ccc(OCCCCCCOc2ccc(C[C@@H](C)NC[C@H](O)c3cccc(Cl)c3)cc2)cc1)NC[C@H](O)c1cccc(Cl)c1 | 296 nM |
| CC(=O)Nc1ccc(COc2ccc(Nc3ccnc4cc(-c5ccccn5)ccc34)cc2)cc1 | 196 nM |
| CC(=O)N(Cc1nc(-c2cc(C(F)(F)F)cc(C(F)(F)F)c2)cs1)c1c(C)cccc1C | 107 nM |
| COc1ccc(-c2cncc(-c3ccc(OC)c(OC)c3)n2)cc1OC | 777 nM |
| Cc1cc(OCCCn2ccnc2)ccc1-c1csc(/N=C(\N)NCc2ccccc2)n1 | 878 nM |
| O=S(=O)(Nc1ccc(-c2ccc(CN3CCCC3)cc2)cc1)c1cccc2cccnc12 | 1020 nM |
| COc1cc(NC(=O)Nc2cccc3ccccc23)c(OC)cc1Cl | 484 nM |
| NS(=O)(=O)c1ccc(CNc2ccc3ncc(-c4ccc(OC(F)(F)F)cc4)n3n2)cc1 | 578 nM |

| Compound | XC50 |
| --- | --- |
| COc1ccc(NC(=O)Nc2ccc(Nc3nc(C)cc(N(C)C)n3)cc2)cc1 | 454 nM |
| Cc1ccoc1C(=O)Nc1ccc(-c2cccc(-c3nc4cccc(C)c4[nH]3)c2)cc1 | 726 nM |
| CC(O)C1CCCCN1C(=O)c1cccc(-c2cccc(-c3nc4cc(F)ccc4[nH]3)c2)c1 (stereo unspecified) | 536 nM |
| COc1ccc2ncc(F)c(CCN3CCC(NCc4cc(OC)c5c(c4)OCCO5)CC3)c2n1 | 572 nM |
| N#CCCN1CCN(Cc2cccc(-c3ccc(-c4nc5ccccc5[nH]4)cc3)c2)CC1 | 1020 nM |
| CC[C@H]1CN(C/C=C/c2ccc(OC)cc2)CC[C@H]1CCCc1ccnc2ccc(O)cc12 | 657 nM |
| COc1cc2c(cc1NS(=O)(=O)c1ccc(OCc3ccc(Br)cc3)cc1)CCN(C1CCC1)CC2 | 843 nM |
| CCOC(=O)C(C)(C)Oc1ccc(C(=C2CC(C)(C)CC(C)(C)C2)c2ccc(O)cc2)cc1 | 1130 nM |
| CC(=O)c1sc2ccccc2c1O | 880 nM |
| Nc1ncc(-c2cn[nH]c2)cc1-c1nc2ccc(F)cc2[nH]1 | 729 nM |
| NC(=S)Cc1ccc2c(c1)OCO2 | 284 nM |
| CC(C)CNCc1ccc(-c2ccc(CN(CCCN3CCN(C)CC3)C(=O)CCC3CCCC3)cc2)cc1 | 1060 nM |
| COc1cc(NCCCNC(=O)c2cn(Cc3ccccc3)c3ccccc23)nc2ccccc12 | 868 nM |
| O=C1c2ccccc2C(=O)N1c1ccc(S(=O)(=O)N2CCOCC2)cc1 | 1260 nM |
| COC(=O)[C@@H](NC(=O)[C@H](Cc1ccc(OC)c(OC)c1)Nc1ccc(C#N)c2ccccc12)c1ccc(O)cc1 | 751 nM |
| Cc1cc(Nc2ccncc2)n2nc(C)c(-c3ccc(Cl)cc3)c2n1 | 157 nM |
| COc1ccc(-c2ccc(NC(=O)c3cccc(C#N)c3)cc2)cc1CN1CCN(C)CC1 | 713 nM |
| COc1ccc2nc3cc(Cl)ccc3c(Nc3ccc(O)c(CN4CC5CCC(CC5)C4)c3)c2c1 | 172 nM |
| CCCOc1cc2c(cc1OCCC)C(C=Cc1ccc(Cl)cc1Cl)=NC(C)C2 (stereo unspecified) | 370 nM |
| Nc1c(Cl)cc(C(O)CNCCCCCOCCc2ccccc2)cc1C(F)(F)F (stereo unspecified) | 978 nM |
| CC(C)CC(C)NC(=O)C1Cc2c([nH]c3ccc(F)cc23)C2(CCN(Cc3ccccc3)CC2)N1 (stereo unspecified) | 970 nM |
| COc1ccc(CNC2Cc3ccccc3C2)cc1-c1cccc(S(=O)(=O)NCCN2CCCC2)c1 | 760 nM |
| CC(=O)NC1=NC(C)(C)N(OCc2ccc(Cl)c(Cl)c2)C(NC(C)=O)=N1 | 3.2 nM |
| CCN(CC)CCN(Cc1ccc(-c2ccc(C(F)(F)F)cc2)cc1)C(=O)Cn1cc(Cc2cnn(C)c2)c(=O)n2nc(-c3ccccc3)cc12 | 730 nM |

| Compound | XC50 |
| --- | --- |
| CCc1cn2c3c(cc(C(=O)N[C@@H](Cc4ccccc4)[C@H](O)CNCCOC)cc13)N(C)S(=O)(=O)CC2 | 954 nM |
| Cc1nc2c(-n3cc(Cn4ccnc4)c4ccccc43)ncnc2n1-c1ccc(Cl)cc1Cl | 994 nM |
| CCCOC(=O)C1=C(C)NC2=C(C(=O)CC(c3ccc(OC)c(OC)c3)C2)C1c1cccc(O)c1 (stereo unspecified) | 121 nM |
| CC(C)CNC(=O)c1cncc(-c2cccc(CNC3Cc4ccccc4C3)c2)c1 | 786 nM |
| Cc1ccc(C)c(S(=O)(=O)NCC2CCN(Cc3ccc(O)cc3)CC2)c1 | 978 nM |
| Clc1ccc2c(NCCCCCCCCNc3ccnc4cc(Cl)ccc34)ccnc2c1 | 482 nM |
| O=C(/C=C/c1ccc(Cl)c(Cl)c1)NCCCCCN1CCC(NC(=O)Nc2cc(Cl)ccc2Cl)CC1 | 433 nM |
| O=C(Nc1ccc(OC2CCN(Cc3ccco3)C2)c(Cl)c1)c1ccc2ncccc2c1 (stereo unspecified) | 1080 nM |
| CS(=O)(=O)c1ccc(Nc2ncc(-c3ccc(S(C)(=O)=O)cc3)c(OCC(F)(F)F)n2)cc1 | 401 nM |
| COc1ccc2nccc(NC(=O)C3CCC(NCc4cnc(SC)c([N+](=O)[O-])c4)CC3)c2n1 (stereo unspecified) | 927 nM |
| CCc1cn(C)c2c(N3CCCC3=O)cc(C(=O)N[C@@H](Cc3ccccc3)[C@H](O)CNC(C)(C)c3cccc(C(F)(F)F)c3)cc12 | 106 nM |
| CCN1CCC(N(Cc2ccc(-c3ccc(C(F)(F)F)s3)cc2)C(=O)Cn2c(CCc3cccc(F)c3F)nc(=O)c3ccccc32)CC1 | 932 nM |
| CN1CCN(c2ccnc3ccc(NC(=O)Nc4cccc5ccccc45)cc23)CC1 | 488 nM |
| c1cc(CNC2CCN(CC3CCCCC3)CC2)cc(-n2ccnc2)c1 | 650 nM |
| CCCNc1ccc(-c2cc(C(N)=O)c3[nH]cc(C4CCN(S(=O)(=O)CC)CC4)c3c2)cn1 | 817 nM |
| O=C(Nc1ccc(-c2nc3ccccc3[nH]2)cc1)c1ccc(-c2cccc([N+](=O)[O-])c2)o1 | 267 nM |
| COc1ccccc1C1CCN(Cc2csc(NC(=O)c3ccc(-c4ccc(C(F)(F)F)cc4)cc3)n2)CC1 | 954 nM |
| Cc1ccc(OC2CCN(c3ccc(C(=O)NC4CC4)cn3)CC2)cc1 | 1300 nM |
| Cc1sc(NC(=O)Cc2cccc(C(F)(F)F)c2)nc1-c1cccc(Cl)c1 | 470 nM |
| Cc1cc(F)ccc1-c1nc(Nc2ccncc2)c2ccn(C)c2n1 | 940 nM |
| CC[C@H]1CN2CC[C@H]1C[C@H]2[C@H](O)c1cc(-c2ccccc2C)nc2ccc(OC)cc12 | 195 nM |
| CN1CCCc2cc(NC(=O)C=Cc3ccc(-c4ccc(F)cc4F)o3)ccc2C1 | 783 nM |
| CCN(CCCN1CCCCC1)c1cc(C)nc(Nc2ccc(Cl)c(C(F)(F)F)c2)n1 | 173 nM |
| COc1ccc2nccc([C@@H](O)CN3CCC(NCc4cc5c(F)ccc(F)c5[nH]4)CC3)c2c1 | 144 nM |

| Compound | XC50 |
| --- | --- |
| Cc1ccc(Cn2ncc(N3CCCNCC3)c(Cl)c2=O)cc1NC(=O)Nc1ccc(-c2ccccc2)cc1 | 625 nM |
| c1cc(CN2CCN(CCN3CCOCC3)CC2)cc(-c2csc(-c3nc4ccccc4[nH]3)c2)c1 | 452 nM |
| CCn1ncc2c(N3CCCC3=O)cc(C(=O)N[C@@H](Cc3ccccc3)[C@H](O)CNC(C)(C)c3cccc(OC)c3)cc21 | 107 nM |
| CCCCCCN1CCC(NCc2ccc(C(F)(F)F)cc2)CC1 | 375 nM |
| CCC(C)CN1CCN(c2ccc(NC(=O)c3cccs3)cc2)C(C)C1 (stereo unspecified) | 544 nM |
| N#Cc1ccc2c(c1)CN(CCC1CCC(NC(=O)c3cc4cc(OC(F)(F)F)ccc4[nH]3)CC1)CC2 (stereo unspecified) | 777 nM |
| Oc1cccc2ccc(Nc3ccccn3)nc12 | 752 nM |
| Cc1cc(=O)[nH]c2cc(Nc3ccnc(Nc4cccc(C(N)=O)c4)n3)ccc12 | 1520 nM |
| CC(C)(CNCc1cccc(Oc2ccccc2)c1)c1nc(-c2ccnc(N)n2)c(-c2ccc(Cl)c(O)c2)[nH]1 | 760 nM |
| Cc1cccc(C(=O)Nc2ccnc(N(C)C3CCN(CC(C)C)CC3)c2)c1 | 869 nM |
| Cc1ccccc1C1CCN(C2CCC(NC(=O)/C=C/c3cccc(C(F)(F)F)c3)CC2)CC1 (stereo unspecified) | 1520 nM |
| Cn1c(-c2ccccc2)cc2c3c(=O)cc(C(F)(F)F)[nH]c3ccc21 | 849 nM |
| CCc1ccc(-n2c(=O)c3cccnc3n2CC(=O)NC2CCCC2)cc1 | 917 nM |
| CCCCN(CCCC)/C(=N/C(=N)Nc1ccc(Cl)cc1)NCCCCCCN/C(=N\C(=N)Nc1ccc(Cl)cc1)N(CCCC)CCCC | 791 nM |
| Nc1nccc(-c2ccc3c(-c4cccc(F)c4)cnc(N)c3c2)n1 | 1020 nM |
| NC1CCN(Cc2cccc(-c3ccc(-c4nc5ccccc5[nH]4)cc3)c2)C1 (stereo unspecified) | 830 nM |
| OCC1CCN(Cc2ccc(-c3ccc(-c4nc5cc(F)ccc5[nH]4)s3)cc2)CC1 | 850 nM |
| O=C(NCC1CCC(C(=O)NCCc2ccc(Cl)c(Cl)c2)CC1)c1ccc(O)c(-c2ccc(Cl)c(Cl)c2)c1 (stereo unspecified) | 895 nM |
| CN1CC[C@@H](Oc2cc(NC(=O)Nc3ccc(Cl)c(C(F)(F)F)c3)ccc2Cl)C1 | 994 nM |
| CC(C)(C)c1ccc(NC(=O)c2cccc(CN3CCCN(Cc4cccc(O)c4)CC3)c2)cc1 | 552 nM |
| CC(C)(C)c1ccc(-c2cc(C(=O)N[C@@H](CO)C(=O)O)on2)cc1.CC(C)(C)c1ccc(-c2nocc2C(=O)N[C@@H](CO)C(=O)O)cc1 | 966 nM |
| COc1ccc(Nc2nccc(N3CCC(NC(=O)C(C)c4ccc(Cl)cc4)C3)n2)cc1 (stereo unspecified) | 1010 nM |
| C=CCN1C(=O)C(=Cc2cc(Br)ccc2O)SC1=Nc1ccccc1 | 900 nM |
| COc1ccc(Cc2c(C)nc3nc(N)nc(N)c3c2C)cc1OC | 912 nM |
